According to PMC7588595, “Small-molecule active pharmaceutical ingredients of approved cancer therapeutics inhibit human aspartate/asparagine-β-hydroxylase” (Bioorganic & Medicinal Chemistry, 2020):
Counter-ions that a name gives are not always drawn. Like-named read-outs stand apart in the source and are kept apart here.

Biological target: T1, human AspH (His6-AspH315–758) (Homo sapiens, UniProt Q12797)
T1 construct: N-Terminally His6-tagged human AspH315–758 (His6-AspH315–758) was produced in Escherichia coli BL21 (DE3) cells; made in house; host or cells: Escherichia coli BL21 (DE3), pET-28a(+) vector
T1 sequence (Q12797 315-758): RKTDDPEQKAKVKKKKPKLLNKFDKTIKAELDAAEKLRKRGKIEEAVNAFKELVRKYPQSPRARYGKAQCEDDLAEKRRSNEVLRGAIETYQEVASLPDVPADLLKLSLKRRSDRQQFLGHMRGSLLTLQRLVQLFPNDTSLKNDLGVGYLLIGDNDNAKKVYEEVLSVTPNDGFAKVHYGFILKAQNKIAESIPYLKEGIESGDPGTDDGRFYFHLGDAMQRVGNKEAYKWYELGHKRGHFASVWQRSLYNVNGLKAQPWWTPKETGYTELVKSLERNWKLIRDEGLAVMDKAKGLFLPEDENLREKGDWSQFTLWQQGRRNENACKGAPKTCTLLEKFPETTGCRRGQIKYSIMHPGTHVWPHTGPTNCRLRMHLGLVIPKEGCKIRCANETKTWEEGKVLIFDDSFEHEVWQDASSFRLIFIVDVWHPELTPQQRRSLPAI
Experiment: SPE-MS AspH inhibition assay (hFX-CP101-119 substrate hydroxylation)
Assay type: biochemical

[1] = AspH-inhibitor screening, 384-well Plate 1
[2] = AspH-inhibitor screening, 384-well Plate 1, substrate conversion
[3] = AspH-inhibitor screening, Plate 1-duplicate
[4] = AspH-inhibitor screening, Plate 1-duplicate, substrate conversion

Structure (SMILES) | Plate 1 (% inhibition) [1] [%] | Plate 1 (% conversion) [2] [%] | Plate 1-duplicate (% inhibition) [3] [%] | Plate 1-duplicate (% conversion) [4] [%] | Plate 1 (% inhibition) [%] | Plate 1-duplicate (% inhibition) [%] | Plate 1 (% conversion) [%] | Plate 1-duplicate (% conversion) [%]
Cc1c(C(=O)Nc2ccc(N3C[C@@H](C)O[C@@H](C)C3)nc2)cccc1-c1ccc(OC(F)(F)F)cc1 [Erismodegib] | -2.59 | 50.95 | -6.71 | 55.37 |  |  |  | 
COC(=O)c1ccc2c(c1)NC(=O)/C2=C(\Nc1ccc(N(C)C(=O)CN2CCN(C)CC2)cc1)c1ccccc1 [BIBF 1120_Nintedanib] | -13.53 | 56.00 | -2.41 | 53.24 |  |  |  | 
CC(C)c1c(C(=O)Nc2ccccc2)c(-c2ccccc2)c(-c2ccc(F)cc2)n1CC[C@@H](O)C[C@@H](O)CC(=O)[O-].CC(C)c1c(C(=O)Nc2ccccc2)c(-c2ccccc2)c(-c2ccc(F)cc2)n1CC[C@@H](O)C[C@@H](O)CC(=O)[O-].[Ca+2] [Atorvastatin Ca] |  |  |  |  | 0.42 | -1.82 |  | 
O=P1(N(CCCl)CCCl)NCCCO1 (stereo not shown) [Cyclophosphamide] |  |  |  |  | 10.37 | 7.81 | 44.96 | 48.17
CC(C)C[C@@H](C(=O)N[C@H](C(=O)OC1CCCC1)c1ccccc1)[C@H](O)C(=O)NO [CHR 2797_Tosedostat] | -9.77 | 54.26 | -16.99 | 60.47 |  |  |  | 
CCCS(=O)(=O)Nc1ccc(F)c(C(=O)c2c[nH]c3ncc(-c4ccc(Cl)cc4)cc23)c1F [PLX4032_Vemurafenib] | 39.76 | 31.39 | 46.15 | 29.15 |  |  |  | 
Cl.Cn1c(CCCC(=O)O)nc2cc(N(CCCl)CCCl)ccc21 [Bendamustine hydrochloride] | 2.89 | 48.41 | 4.93 | 49.60 |  |  |  | 
CN1CCN(c2ccc3nc(-c4c(N)c5c(F)cccc5[nH]c4=O)[nH]c3c2)CC1 [CHIR-258 (Dovitinib)] | -15.11 | 56.73 | -6.96 | 55.49 |  |  |  | 
Cc1ccc(F)c(NC(=O)Nc2ccc(-c3cccc4[nH]nc(N)c34)cc2)c1 [ABT-869_Linifanib] | 24.64 | 38.37 | 34.65 | 34.86 |  |  |  | 
COc1cccc2c1C(=O)c1c(O)c3c(c(O)c1C2=O)C[C@@](O)(C(=O)CO)C[C@@H]3O[C@H]1C[C@H](N)[C@H](O)[C@H](C)O1 [Doxorubicin] | -11.25 | 54.95 | -1.25 | 52.66 |  |  |  | 
CNC(=O)c1cc(Oc2ccc(NC(=O)Nc3cc(C(C)(C)C)nn3-c3ccc4ncccc4c3)c(F)c2)ccn1 [DCC-2036_Rebastinib] | 0.16 | 49.67 | 3.62 | 50.25 |  |  |  | 
Cl.c1ccc(C2CN3CCSC3=N2)cc1 (stereo not shown) [Tetramisole HCl] |  |  |  |  | 7.83 | 7.87 | 46.13 | 48.14
C[C@]12C=CC(=O)C=C1CC[C@@H]1[C@@H]2[C@@H](O)C[C@@]2(C)[C@H]1CC[C@]2(O)C(=O)CO [Prednisolone] | 19.12 |  | 12.03 |  |  |  | 40.92 | 46.08
C=CCNC1=C2C[C@@H](C)C[C@H](OC)[C@H](O)[C@@H](C)/C=C(\C)[C@H](OC(N)=O)[C@@H](OC)/C=C\C=C(/C)C(=O)NC(=CC1=O)C2=O [17-AAG (Tanespimycin, Geldanamycin)] | -8.89 | 53.86 | -13.53 | 58.75 |  |  |  | 
CN[C@@H]1C[C@H]2O[C@@](C)([C@@H]1OC)n1c3ccccc3c3c4c(c5c6ccccc6n2c5c31)C(=O)N[C@H]4O [UCN-01] | 3.15 | 48.30 | -0.80 | 52.44 |  |  |  | 
CC(=O)N(O)CCCCCNC(=O)CCC(=O)N(O)CCCCCNC(=O)CCC(=O)N(O)CCCCCN [Deferoxamine mesylate] | 14.63 | 43.00 | 7.26 | 48.44 |  |  |  | 
COc1ccc(S(=O)(=O)Nc2cccnc2Nc2ccc(O)cc2)cc1 [ABT-751] | 4.88 | 47.50 | 8.62 | 47.77 |  |  |  | 

The next lines start with results.

Plate 1 (% inhibition) [1] [%] | Plate 1 (% conversion) [2] [%] | Plate 1-duplicate (% inhibition) [3] [%] | Plate 1-duplicate (% conversion) [4] [%] | Structure (SMILES) | Plate 1 (% inhibition) [%] | Plate 1-duplicate (% inhibition) [%] | Plate 1 (% conversion) [%] | Plate 1-duplicate (% conversion) [%]
0.07 | 49.72 | 2.99 | 50.56 | CS(=O)(=O)c1ccc(C2=C(c3ccccc3)C(=O)OC2)cc1 [Rofecoxib (Vioxx)] |  |  |  | 
15.11 | 42.77 | 17.38 | 43.42 | CN(Cc1cnc2nc(N)nc(N)c2n1)c1ccc(C(=O)N[C@@H](CCC(=O)O)C(=O)O)cc1 [Methotrexate] |  |  |  | 
5.12 | 47.38 | 8.46 | 47.85 | Cn1nnc2c(C(N)=O)ncn2c1=O [Temozolomide] |  |  |  | 
 | 47.43 | 4.54 | 49.79 | Nc1cccc2c1CN(C1CCC(=O)NC1=O)C2=O (stereo not shown) [Lenalidomide] |  |  |  | 
1.09 | 49.25 | 10.34 | 46.91 | Nc1ccn([C@@H]2O[C@H](CO)[C@@H](O)C2(F)F)c(=O)n1 [Gemcitabine hydrochloride] |  |  |  | 
4.18 | 47.82 | -21.51 | 62.71 | Cc1ccc(Nc2nccc(N(C)c3ccc4c(C)n(C)nc4c3)n2)cc1S(N)(=O)=O [Pazopanib] |  |  |  | 
11.20 | 44.58 | -8.84 | 56.43 | COc1cc2nccc(Oc3ccc(NC(=O)C4(C(=O)Nc5ccc(F)cc5)CC4)cc3)c2cc1OC [XL184_Cabozantinib] |  |  |  | 
15.27 | 42.70 | 14.14 | 45.03 | O=C(c1cc(Cc2n[nH]c(=O)c3ccccc23)ccc1F)N1CCN(C(=O)C2CC2)CC1 [Olaparib] |  |  |  | 
72.42 | 16.31 | 72.94 | 15.87 | CC(C)C[C@H](NC(=O)CNC(=O)c1cc(Cl)ccc1Cl)B1OC(=O)C(CC(=O)O)(CC(=O)O)O1 [Ixazomib citrate] |  |  |  | 
6.32 | 46.83 | 5.00 | 49.56 | NC(=O)c1ccc(I)c([N+](=O)[O-])c1 [Iniparib (BSI-201, IND-71677)] |  |  |  | 
7.55 | 46.26 | 6.67 | 48.73 | Clc1ccc(Nc2nnc(Cc3ccncc3)c3ccccc23)cc1 [Vatalanib] |  |  |  | 
3.20 | 48.27 | 17.17 | 43.53 | CC[C@@H]1C(=O)OC[C@@H]1Cc1cncn1C [Pilocarpine] |  |  |  | 
1.39 | 49.11 | 2.62 | 50.74 | CCc1cnn2c(NCc3ccc[n+]([O-])c3)cc(N3CCCC[C@H]3CCO)nc12 [Dinaciclib (SCH727965)] |  |  |  | 
-4.91 | 52.02 | -2.62 | 53.34 | COc1cccc2cc(-c3nc([C@H]4CC[C@H](C(=O)O)CC4)n4ncnc(N)c34)[nH]c12 [OSI-027] |  |  |  | 
-15.73 | 57.02 | -23.07 | 63.48 | CCS(=O)(=O)c1cccc(-c2cc(C(=O)NC3CCN(C)CC3)c(C)c3[nH]c4ncc(C)cc4c23)c1 [TAK-901] |  |  |  | 
7.47 | 46.30 | 5.36 | 49.38 | O=c1[nH]cc(F)c(=O)[nH]1 [Fluorouracil] |  |  |  | 
71.19 | 16.88 | 64.04 | 20.28 | CC1=C(/C=C/C(C)=C/C=C/C(C)=C/C(=O)O)C(C)(C)CCC1 [Tretinoin] |  |  |  | 
